Experimental data from paper PMC7765794 (Nutrients, 2020).

Molecular target: T1, human ODC (Homo sapiens, UniProt P11926)
T1 construct: His-tag (N); made in house; host or cells: Escherichia coli JM109
T1 sequence (P11926 1-461): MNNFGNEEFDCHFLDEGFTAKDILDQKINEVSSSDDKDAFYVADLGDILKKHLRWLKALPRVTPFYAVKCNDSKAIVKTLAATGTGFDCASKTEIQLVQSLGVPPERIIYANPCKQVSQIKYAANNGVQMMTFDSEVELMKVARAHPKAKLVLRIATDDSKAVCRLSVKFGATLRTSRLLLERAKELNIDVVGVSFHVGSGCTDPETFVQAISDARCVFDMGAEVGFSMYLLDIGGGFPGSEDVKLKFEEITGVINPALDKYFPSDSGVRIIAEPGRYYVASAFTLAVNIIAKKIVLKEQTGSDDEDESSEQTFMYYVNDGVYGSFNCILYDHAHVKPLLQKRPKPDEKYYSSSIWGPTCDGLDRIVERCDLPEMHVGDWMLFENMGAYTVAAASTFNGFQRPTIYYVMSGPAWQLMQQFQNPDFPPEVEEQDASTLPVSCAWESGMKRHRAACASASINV
Assay: ODC enzyme activity assay and inhibition study (CO2-L3K coupled spectrophotometric assay);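 further: His-tagged human ODC expressed in Escherichia coli, activity followed as decarboxylation coupled via PEP carboxylation and malate formation to NADH analog oxidation, absorbance drop at 405 nm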
Format: biochemical
Details: for IC50 / IC50 to ornithine decarboxylase (ODC): purified human ODC, 37 °C, 10 mM ornithine, 0.2 mM PLP, n = 3; for IC50: read-out: IC50 to ornithine decarboxylase (ODC); for ODC suppression activity (in words): purified human ODC enzyme activity; for IC50 relative to that of myricetin: IC50 greater than that of myricetin

SMILES | ODC suppression activity (in words) | IC50 to ornithine decarboxylase (ODC) | other results
O=c1cc(-c2ccccc2)oc2cc(O)c(O)cc12 [6,7-Dihydroxyflavone] |  |  | IC50 relative to that of 7,8-DHF (IC50 greater than that of 7,8-DHF): approximately 100 fold; IC50: 289 µM
O=c1c(O)c(-c2ccccc2)oc2ccccc12 [Flavonol] | little ODC suppression activity | No inhibition | 
NCCCC(N)(C(=O)O)C(F)F (racemic) [DFMO, α-DL-difluoromethylornithine, reference compound] |  |  | IC50: ~100 µM
O=c1c(O)c(-c2ccc(O)cc2O)oc2cc(O)cc(O)c12 [Morin] |  |  | IC50 relative to that of myricetin: 10 fold; IC50: 82 µM
C[C@@H]1O[C@@H](OC[C@H]2O[C@@H](Oc3c(-c4ccc(O)c(O)c4)oc4cc(O)cc(O)c4c3=O)[C@H](O)[C@@H](O)[C@@H]2O)[C@H](O)[C@H](O)[C@H]1O [Rutin] | did not display apparent ODC-suppressing activity |  | IC50: > 120 µM
Cc1ncc(CO)c(C(=O)O)c1O [4-Pyridoxic acid, reference compound] | cannot inhibit ODC activity |  | ODC suppression activity (in words) (listed as 4-pyridoxic acid): none of these compounds were able to suppress ODC activity
O=c1c(-c2ccc(O)cc2)coc2cc(O)ccc12 [Daidzein] | did not show any ODC suppression activity | No inhibition | 
Oc1ccc2c(c1)OCO2 [Sesamol, reference compound] | cannot inhibit ODC activity |  | ODC suppression activity (in words) (listed as sesamol): none of these compounds were able to suppress ODC activity
O=c1c(O)c(-c2ccc(O)c(O)c2)oc2cc(O)cc(O)c12 [Quercetin] |  |  | IC50 relative to that of myricetin: 10 fold; IC50: 82 µM
O=c1cc(-c2ccc(O)cc2)oc2cc(O)cc(O)c12 [Apigenin] | did not show any ODC suppression activity | No inhibition | 
Cc1ncc(CO)c(CN)c1O [Pyridoxamine, reference compound] | cannot inhibit ODC activity |  | ODC suppression activity (in words) (listed as pyridoxamine): none of these compounds were able to suppress ODC activity
Cn1cnc2c1c(=O)[nH]c(=O)n2C [Theobromine, reference compound] | cannot inhibit ODC activity |  | ODC suppression activity (in words) (listed as theobromine): none of these compounds were able to suppress ODC activity
COc1ccc(-c2coc3cc(O)cc(O)c3c2=O)cc1 [Biochanin] | did not show any ODC suppression activity | No inhibition | 
O=c1cc(-c2ccccc2)oc2c(O)c(O)ccc12 [7,8-Dihydroxyflavone] |  |  | inhibition pattern with respect to L-ornithine (double reciprocal plots): noncompetitive inhibition pattern; IC50: 2.54 µM; Ki (with respect to substrate L-ornithine, noncompetitive fit, read-out: Ki(ornithine) against ODC): 1.4 ± 0.1 µM
O=c1cc(-c2ccccc2)oc2ccc(O)cc12 [6-Hydroxyflavone] | did not show any ODC suppression activity | No inhibition | 
O=c1cc(-c2ccccc2)oc2ccccc12 [Flavone] | little ODC suppression activity | No inhibition | 
O=c1cc(-c2ccc(O)c(O)c2)oc2cc(O)cc(O)c12 [Luteolin] |  |  | IC50 relative to that of myricetin: 10 fold; IC50: 90 µM
Cn1c(=O)c2c(ncn2C)n(C)c1=O [Caffeine, reference compound] | cannot inhibit ODC activity |  | ODC suppression activity (in words) (listed as caffeine): none of these compounds were able to suppress ODC activity
Cn1c(=O)c2[nH]cnc2n(C)c1=O [Theophylline, reference compound] | cannot inhibit ODC activity |  | ODC suppression activity (in words) (listed as theophylline): none of these compounds were able to suppress ODC activity
O=c1c(O)c(-c2ccc(O)c(O)c2)oc2cc(O)ccc12 [Fisetin] |  |  | IC50: 96 µM
COc1ccc2c(=O)cc(-c3ccccc3)oc2c1OC [7,8-Dimethoxyflavone] | little ODC suppression activity | No inhibition | 
O=C1C[C@@H](c2ccccc2)Oc2cc(O)cc(O)c21 [Pinocembrin] | little ODC suppression activity | No inhibition | 
O=C1C[C@@H](c2ccc(O)cc2)Oc2cc(O)cc(O)c21 [Naringenin] | did not show any ODC suppression activity | No inhibition | 
O=c1c(O)c(-c2ccc(O)cc2)oc2cc(O)cc(O)c12 [Kaempferol] | did not show any ODC suppression activity |  | 
O=C1C=Cc2ccccc2C1=O [1,2-Naphthoquinone, reference compound] | cannot inhibit ODC activity |  | ODC suppression activity (in words) (listed as 1,2-naphthoquinone): none of these compounds were able to suppress ODC activity
Cc1ncc(CO)c(C)c1O [4-Deoxypyridoxine, reference compound] | cannot inhibit ODC activity |  | ODC suppression activity (in words) (listed as 4-deoxypyridoxine): none of these compounds were able to suppress ODC activity
O=c1cc(-c2ccccc2)oc2cc(O)ccc12 [7-Hydroxyflavone] | did not show any ODC suppression activity | No inhibition | 
O=c1cc(-c2ccccc2)oc2cc(O)cc(O)c12 [Chrysin] | little ODC suppression activity | No inhibition | 
CCOc1cc(C=O)ccc1O [Ethyl vanillin, reference compound] | cannot inhibit ODC activity |  | ODC suppression activity (in words) (listed as ethyl vanillin): none of these compounds were able to suppress ODC activity
